Our source for the GI50 and TGI values is PubChem BioAssay (NCI).

Among the test systems are SW-620 colon; EKVX NSCLC; UACC-62 melanoma; OVCAR-5 ovarian; SK-MEL-28 melanoma; LOX IMVI melanoma; HT29 colon; KM12 colon; RXF 393 renal; NCI-H226 lung.
Common to all, as to test: NCI anticancer screen, dose series, 48 h

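Five compound concentrations were applied to cells in 96-well plates for 48 hours; endpoints were derived by simple linear interpolation of the resulting dose-response curve. Abbreviation: GI50, concentration required for 50% inhibition of growth. Definition used: TGI = concentration required for complete inhibition of growth.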 *1 amine or outer side, *2 acyl side, *3 side chain or, on linkers, in order; H or OH if unused. Where a SMILES comes first, the peptide text is derived from it. Bridges are numbered along the chain shown (N, C = ends). [ ]: non-standard residue; d: D form. The star is where a group is joined. X19 = O=C([C@H](N[*:1])c1ccc(O[C@H]2O[C@@H](CO)[C@@H](O)[C@@H](O)[C@H]2O[C@@H]2O[C@H](CO)[C@H](O)[C@H](O)[C@@H]2O)cc1)[*:2]; X18 = NC(=O)[C@@H](O[*:3])[C@H](N[*:1])C(=O)[*:2]; X20 = O=C([C@H](N[*:1])c1ccc(O)c(Cl)c1)[*:2]; d(aThr) = C[C@@H](O)[C@@H](N)C(=O)O; dHpg = N[C@@H](C(=O)O)c1ccc(O)cc1; X17 = CC(C)C/C=C/C=C/C(=O)*; dOrn = NCCC[C@@H](N)C(=O)O

Consider `C/C=C1\C(=O)O[C@@H]2C1C[C@@H]1O[C@H]2[C@H](C)CCC/C(C)=C/CC[C@@]1(C)O` (stereo not given in full), for which the GI50 in the experiment on SW-620 colon was 4.14 µM; with EKVX NSCLC, 2.22 µM; with UACC-62 melanoma it was 7.16 µM; with OVCAR-5 ovarian, 13.5 µM; with SK-MEL-28 melanoma, 0.38 µM; in the experiment with LOX IMVI melanoma, 5.8 µM. Also, the GI50 in the experiment on HT29 colon is 25.4 µM; with KM12 colon it was 13.9 µM; in the experiment on RXF 393 renal, 2.59 µM. The TGI in the experiment on SW-620 colon came to 15 µM; with EKVX NSCLC, 5.53 µM; in the experiment with UACC-62 melanoma it was 20.7 µM; with OVCAR-5 ovarian, 26.8 µM; in the experiment on SK-MEL-28 melanoma, 21.9 µM; with LOX IMVI melanoma it was 21.5 µM. In addition, the results for the TGI in the experiment on HT29 colon, with KM12 colon and with RXF 393 renal were more than 100 µM, 31.7 µM and 6.99 µM, respectively.

`O=C1NC(=O)C(=O)C(c2nc3ccccc3s2)C1=O`: the TGI in the experiment with SW-620 colon, with NCI-H226 lung, with EKVX NSCLC, in the experiment with UACC-62 melanoma, in the experiment on SK-MEL-28 melanoma and with HT29 colon was more than 100 µM throughout. Moreover, the TGI in the experiment on KM12 colon and with RXF 393 renal was more than 100 µM throughout.

Consider `CCCCCCCC(=O)OCC1OC(n2cc(F)c(=O)[nH]c2=O)C(NC(=O)OCc2ccccc2)C(OC(=O)CCCCCCC)C1O` (stereo not given), for which the TGI with SW-620 colon is more than 100 µM; in the experiment on EKVX NSCLC it was more than 100 µM; with UACC-62 melanoma it was 45.7 µM; in the experiment on SK-MEL-28 melanoma, more than 100 µM; with LOX IMVI melanoma it was 29.7 µM; in the experiment on HT29 colon, more than 100 µM. In addition, the TGI is more than 100 µM in the experiment with KM12 colon and 64.2 µM in the experiment on RXF 393 renal.

With `CC([C@H]1CCC2C3CCC4CC5(CC[C@]4(C)C3CC[C@@]21C)c1ccccc1C(=O)N5C)N(C)C` (stereo not given in full), the TGI in the experiment on SW-620 colon was more than 100 µM; in the experiment on UACC-62 melanoma, 73 µM; with OVCAR-5 ovarian, more than 100 µM; in the experiment with SK-MEL-28 melanoma it was 35 µM; with LOX IMVI melanoma, 4.21 µM; in the experiment with HT29 colon it was 68.2 µM. For the same compound, the TGI in the experiment with KM12 colon and in the experiment on RXF 393 renal was more than 100 µM in each case.

Take `Oc1cccc(Cn2c(-c3cccc(O)c3O)nc3ccccc32)c1O`: the GI50 with SW-620 colon is 6.82 µM; in the experiment with NCI-H226 lung it was 3.95 µM; in the experiment with UACC-62 melanoma, 3.1 µM; with OVCAR-5 ovarian, 10.9 µM; with SK-MEL-28 melanoma it was 10.9 µM; in the experiment on LOX IMVI melanoma, 2.84 µM. Further, the GI50 is 15.5 µM in the experiment on HT29 colon, 8.62 µM in the experiment on KM12 colon and 5.82 µM in the experiment with RXF 393 renal. The TGI amounted to 60.1 µM with SW-620 colon; 21.9 µM in the experiment with NCI-H226 lung; 12.6 µM in the experiment on UACC-62 melanoma; 48.1 µM in the experiment with OVCAR-5 ovarian; 27.6 µM in the experiment on SK-MEL-28 melanoma; 15.3 µM in the experiment with LOX IMVI melanoma. Also, the TGI in the experiment with HT29 colon was more than 100 µM; with KM12 colon it was 30.2 µM; with RXF 393 renal, 25.4 µM.

As for `NNC(=O)CCC(=O)Nc1ccc(Cl)cc1Cl`, the TGI in the experiment with SW-620 colon, with NCI-H226 lung, in the experiment on UACC-62 melanoma, with OVCAR-5 ovarian, with SK-MEL-28 melanoma and with LOX IMVI melanoma was more than 100 µM each time. Also, the TGI in the experiment on HT29 colon, in the experiment on KM12 colon and in the experiment on RXF 393 renal was more than 100 µM throughout.

`CC(=O)NC1C(OCc2ccccc2)OC(COC(=O)CCCCCNc2ccc([N+](=O)[O-])c3[nH]c4ccc(O)cc4c(=O)c23)C(O)C1OC(C)C(=O)N[C@@H](C)C(=O)N[C@H](CCC(=O)OCc1ccccc1)C(N)=O` (stereo not given in full): the TGI stood at 4.42 µM in the experiment with SW-620 colon; 12.3 µM in the experiment with NCI-H226 lung; 17.3 µM with EKVX NSCLC; 4.27 µM with UACC-62 melanoma; 3.81 µM in the experiment on OVCAR-5 ovarian; 6.9 µM with SK-MEL-28 melanoma. For the same compound, the figures for the TGI in the experiment with LOX IMVI melanoma, in the experiment with HT29 colon and in the experiment with RXF 393 renal were 10.7 µM, 3.09 µM and 3.26 µM, respectively.

Take `N#Cc1nn(C2OC(COC(=O)c3ccccc3)C(OC(=O)c3ccccc3)C2OC(=O)c2ccccc2)c2nc[nH]c(=O)c12` (stereo not given): the TGI in the experiment with SW-620 colon, in the experiment with NCI-H226 lung, in the experiment with EKVX NSCLC, in the experiment with UACC-62 melanoma, in the experiment with OVCAR-5 ovarian and with SK-MEL-28 melanoma was more than 100 µM throughout. Moreover, the TGI with HT29 colon and in the experiment with RXF 393 renal was more than 100 µM each time.

For the compound `CC(C)C/C=C/C=C/C(=O)N[C@@H](CC(N)=O)C(=O)N[C@@H]1C(=O)N[C@H](c2ccc(O)cc2)C(=O)N[C@H](CCCN)C(=O)N[C@H]([C@@H](C)O)C(=O)N[C@H](c2ccc(O)cc2)C(=O)N[C@H](c2ccc(O)cc2)C(=O)N[C@H]([C@H](C)O)C(=O)N[C@H](Cc2ccccc2)C(=O)N[C@H](CCCN)C(=O)N[C@H](c2ccc(O[C@H]3O[C@@H](CO)[C@@H](O)[C@@H](O)[C@H]3O[C@@H]3O[C@H](CO)[C@H](O)[C@H](O)[C@@H]3O)cc2)C(=O)N[C@H]([C@H](C)O)C(=O)N[C@H](c2ccc(O)cc2)C(=O)NCC(=O)N[C@H](CC(C)C)C(=O)N[C@H](C)C(=O)N[C@H](c2ccc(O)c(Cl)c2)C(=O)O[C@@H]1C(N)=O` (X17-N[X18][dHpg][dOrn][d(aThr)][dHpg][dHpg][dT][dF][dOrn][X19][dT][dHpg]G[dL][dA][X20]; ester 2-C), the GI50 in the experiment with SW-620 colon is 26.2 µM; with EKVX NSCLC it was 50.6 µM; in the experiment on UACC-62 melanoma it was 21.2 µM; in the experiment on OVCAR-5 ovarian, 27 µM; in the experiment with SK-MEL-28 melanoma it was 23.6 µM; with LOX IMVI melanoma, 29.5 µM. Besides, the GI50 in the experiment with HT29 colon was 33.2 µM; in the experiment with KM12 colon it was 27.8 µM; with RXF 393 renal, 86 µM. Besides, the TGI in the experiment on SW-620 colon was 74.8 µM; in the experiment on EKVX NSCLC it was more than 100 µM; in the experiment with UACC-62 melanoma it was 45.1 µM; in the experiment on OVCAR-5 ovarian, 63.5 µM; in the experiment on SK-MEL-28 melanoma it was 47.8 µM; with LOX IMVI melanoma, more than 100 µM. The TGI in the experiment with HT29 colon, in the experiment with KM12 colon and with RXF 393 renal was more than 100 µM in each case.

As for `O=C(O)CN(c1ccccc1)S(=O)(=O)c1ccc(Cl)cc1`, the TGI in the experiment with SW-620 colon, in the experiment on EKVX NSCLC, in the experiment with UACC-62 melanoma, in the experiment on OVCAR-5 ovarian, in the experiment with SK-MEL-28 melanoma and in the experiment with LOX IMVI melanoma was more than 100 µM in each case. In addition, the TGI with HT29 colon and with RXF 393 renal was more than 100 µM in each case.

For `CCn1cc(C(=O)N/N=C/c2cccc(F)c2)c(=O)c2cc(F)c(N3CCNC(C)C3)c(F)c21` (stereo not given), the GI50 in the experiment on SW-620 colon is 1.68 µM; with NCI-H226 lung, 1.97 µM; with EKVX NSCLC, 1.6 µM; with UACC-62 melanoma, 1.77 µM; with OVCAR-5 ovarian, 1.7 µM; in the experiment with LOX IMVI melanoma, 1.71 µM. Moreover, the GI50 in the experiment with HT29 colon is 1.55 µM; in the experiment with KM12 colon, 1.83 µM; in the experiment with RXF 393 renal, 1.69 µM. Also, the TGI amounted to 3.17 µM in the experiment with SW-620 colon; 4.13 µM in the experiment on NCI-H226 lung; 3.06 µM with EKVX NSCLC; 3.2 µM in the experiment with UACC-62 melanoma; 3.1 µM in the experiment with OVCAR-5 ovarian; 3.21 µM with LOX IMVI melanoma. The TGI in the experiment with HT29 colon was 2.98 µM; in the experiment on KM12 colon, 3.39 µM; in the experiment on RXF 393 renal, 3.22 µM.
